{"source": "patent US9468627B2", "about": "“Slow-release formulations of 5-hydroxytryptophan as an adjunct to pro-serotonergic therapies” (Duke University, priority 2010, dated 2016)", "key": {"[1]": {"conditions": "cited from earlier work"}, "[2]": {"test": "Side-effect and toxicity observation (body weight, drinking, diarrhea, 5-HT syndrome-like behaviors)", "procedure": "Tph2 R439H mice (˜25 g) were treated for >3 wks with a saturating dose of FLX (155 mg/L drinking water, ˜20 mg/kg/day). Thereafter Alzet 2001 minipumps (1 μl delivered/hr) containing a 5-HTP solution (100 mg/ml, ˜100 mg/kg/day) or only vehicle was implanted using isoflurane anesthesia, allowing for swift awakening, and the mice monitored for signs of 5-HT syndrome hourly for 8 hrs and at 24 hrs. Splaying (0=absent, 1=present, 2=severe), head twitch (#/min) and signs of hyperventilation (0=absent, 1=present, 2=severe) was scored. Body weights—a general index of toxicity—were followed for 2 days prior to and 5 days after pump implantation.\nMETHODS: Mice on >2 w FLX (155 mg/L water, ˜20 mg/kg/d) were implanted with Alzet 2001 minipumps with vehicle (50% DMSO) or 100 mg/ml 5-HTP yielding a hourly (daily) dose of ˜4.2(100 mg)/kg for a ˜25 g mouse. Side-effect parameters were assessed between 30 min and 8 h following pump implantation under brief isoflurane anesthesia (day 1) and then daily (day 2-4). […] Diarrhea: Mice where placed individually in a cage with filter paper and the diarrhea level scored, 0-3. Tremor and splaying: Scored in home cage from 5 min videos. Temperature: Recorded by digital rectal temperature probe in lightly restrained mice. […] Statistics: Genotypes were analyses separately, with 2way RM-ANOVA or t-test as appropriate, and in the former case followed by Bonferroni post-hoc test.\nSide-effects were assessed after the AM dose, day 1-4. Diarrhea: Mice were placed individually in a cage with filter paper and the diarrhea level scored, 0-3, 0-15 min after injection. Tremor, splaying and head-twitch: Scored in home cage from 5 min videos, 25-30 min after injection. Temperature: Recorded by digital rectal temperature probe in lightly restrained mice 30 min after injection. […] Statistics: Genotypes were analyzed separately, with 2way RM-ANOVA or t-test where appropriate, and in the former case followed by Bonferroni post-hoc test.\nMETHODS: 5-HTP (2 mg/L) was dissolved in (1 mg/L) saccharin-H2O, administered in blackened bottles and changed twice weekly. […] Body weights and drinking per cage was followed throughout and 5-HTP consumed estimated here from."}, "[3]": {"test": "HPLC pilot stability of 5-HTP in water", "format": "physicochemical", "conditions": "H2O at RT, HPLC pilot experiments"}, "[4]": {"conditions": "Shindo et al. 1977; cited from earlier work"}, "[5]": {"conditions": "immediate-release oral 5-HTP; cited from earlier work"}, "[6]": {"system": "extracellular serotonin (5-HTExt)", "test": "5-HT microdialysis (5-HTExt)", "format": "in vivo, mice", "protocol": "Mice were anesthetized by ketamine/xylazine (100 and 10 mg kg^−1, respectively, in saline, i.p) and a guide cannula (CMA7, CMA Microdialysis, Chelmsford, Mass., USA) was stereotactically implanted into the frontal cortex (AP: 2.3 mm, ML: 0.3 mm, DV: 0.7 mm), hippocampus (AP: −3.3 mm, ML: 3.0 mm, DV: 1.5 mm) or lateral ventricle (AP: 0.3 mm; ML: 0.9 mm; DV: 2.0 mm) according to the atlas by Franklin and Paxinos (see, e.g., Franklin, K. and Paxinos, G. The Mouse Brain in Stereotaxic Coordinates. Academic Press: San Diego, 1997) and fixed in place with two anchor screws (CMA) and carboxylate dental cement (CMA). Operated mice were singly housed, treated with antibiotics (1.2 mg sulfamethoxazole ml^−1 and 0.24 mg trimethoprim ml^−1) in the drinking water and allowed to recover 48-96 h post-surgery.\nThe microdialysis probe was inserted into the guide cannula approximately 16 h before the start of sample collection to allow for the stabilization of 5-HTExt levels. […] Dialysates were analyzed off-line by high-performance liquid chromatography-electrochemical detection (HPLC-EC) for 5-HT, 5-HIAA, 3,4-dihydroxyphenylacetic acid and homovanillic acid, or by the SymDAQ HPLC-tandem-mass spectrometry technology for simultaneous determination of monoamines and amino acids.\nMETHODS: 5-HT Microdialysis 5-HTP SR. […] 5-HTExt in dialysates was determined by HPLC-EC. […]"}}, "note": "Entries after “also recorded” stand apart in the source; their conditions may differ.", "data": [{"smiles": "N[C@@H](Cc1c[nH]c2ccc(O)cc12)C(=O)O", "note": "[5-HTP, 5-hydroxytryptophan]", "values": [{"measurement": "antidepressant effect (HAMD) at endpoint", "setting": "[1]; Alino et al.: 30 inpatients, nialamid 300 mg + 5-HTP 300 mg, two weeks, double-blind", "value": "significantly better than nialamide alone"}, {"measurement": "antidepressant effect (HAMD) versus clomipramine + placebo", "setting": "[1]; Nardini et al.: 26 inpatients, clomipramine 50 mg + 5-HTP 300 mg, four weeks, double-blind", "value": "5-HTP enhanced clomipramines effect"}, {"measurement": "patients going into remission", "setting": "[1]; van Hiele: 99 chronic treatment resistant out-patients, mostly on TCAs, add-on 5-HTP ~200 mg + carbidopa, open label", "value": "Forty-three"}, {"measurement": "side effects", "setting": "[1]; van Hiele: add-on 5-HTP ~200 mg + carbidopa, severity greatly decreased with enteric coated capsules", "value": "nausea, vomiting and diarrhea"}, {"measurement": "patients improved", "setting": "[1]; van Praag: 7 chronic treatment resistant out-patients, clomipramine 50 mg + 5-HTP ~2-400 mg + PDI MK 486", "value": "Four"}, {"measurement": "drinking", "setting": "[2]; 5-HTP 2 mg/ml and 4 mg/ml in drinking water", "value": "Decreased drinking"}, {"measurement": "body weight", "setting": "[2]; 5-HTP 4 mg/ml in drinking water", "value": "Body weight decrease"}, {"measurement": "5-HT syndrome-like behavior", "setting": "[2]; acute 5-HTP bolus 80 mg/kg i.p., add-on to existing FLX ≈18 mg/kg/day", "value": "resulted in 5-HT syndrome-like behavior; also recorded: causes 5-HT syndrome; also recorded: Serotonin syndrome-like behavior was observed"}, {"measurement": "diarrhea, malaise, gastrointestinal side effects", "setting": "[2]; bolus injection 5-HTP 120 mg/kg i.p.", "value": "caused gastrointestinal side effects; also recorded: caused diarrhea and obvious malaise"}, {"measurement": "diarrhea, malaise, gastrointestinal side effects", "setting": "[2]; continuous 5-HTP in drinking water 4 mg/ml", "value": "No diarrhea and no obvious malaise; also recorded: did not result in gastrointestinal side effects"}, {"measurement": "drinking", "setting": "[2]; higher 5-HTP concentrations in drinking water, in pilots", "value": "inhibited drinking"}, {"measurement": "toxicity (weights, head twitches, diarrhea)", "setting": "[2]; oral 5-HTP ≈200 mg/kg/day, no carbidopa, add-on to existing fluoxetine ≈18 mg/kg/day", "value": "No indication of toxicity; also recorded: not toxic and does not result in side effects"}, {"measurement": "stability in H2O", "setting": "[3]", "value": "stable for weeks"}, {"measurement": "first-pass metabolism in the intestine", "setting": "[4]", "value": "~50", "unit": "%"}, {"measurement": "T1/2", "setting": "[5]", "value": "2 to 3", "unit": "h"}, {"measurement": "Tmax", "setting": "[5]", "value": "1 to 2", "unit": "h"}]}, {"smiles": "CCCN(CCC)C1CCc2cccc(O)c2C1", "note": "(stereo not shown) [8-OH-DPAT]", "values": [{"measurement": "decrease of 5-HTExt", "setting": "[6]; 8-OH-DPAT 1 mg/kg i.p.", "value": "approximately 50%"}]}, {"smiles": "CNCCC(Oc1ccc(C(F)(F)F)cc1)c1ccccc1", "note": "(stereo not shown) [FLX, fluoxetine]", "values": [{"measurement": "effect of FLX on 5-HTP-induced diarrhea (peri-rectal fecal smearing)", "setting": "[2]; FLX ≈18 mg/kg/day, 5-HTP bolus 80 mg/kg i.p., not rigorously tested", "value": "seems to decrease diarrhea induced by 5-HTP; also recorded: appeared to lessen 5-HTP-induced diarrhea"}, {"measurement": "5-HTExt response to chronic FLX", "setting": "[6]; wild-type mice, FLX ≈18 mg/kg/day", "value": "robust increase"}]}]}
